Laboratory results: ChEMBL document CHEMBL6092147, “Design of inhibitors of SARS-CoV-2 papain-like protease deriving from GRL0617: Structure-activity relationships” (Bioorg Med Chem, 2024)

Test: Inhibition of SARS-CoV-2 wild type papain-like protease (PLpro) C111S mutant extracted from Escherichia coli using LKGG-AMC as substrate incubated for 60 mins by fluorescence based analysis
Set-up: species or system Severe acute respiratory syndrome coronavirus 2

Cc1ccc(NC(=O)NC(N)=O)cc1C(=O)N[C@H](C)c1cccc2ccccc12
IC50: 5.1 µM

CCC(=O)Nc1ccc(C)c(C(=O)N[C@H](C)c2cccc3ccccc23)c1
IC50: 6.4 µM
